Reference: ChEMBL document CHEMBL5257159, “Insights into targeting SARS-CoV-2: design, synthesis, in silico studies and antiviral evaluation of new dimethylxanthine derivatives” (RSC Med Chem, 2023)
Active and inactive are the calls of the source. The calls are words filed in the database; no cut-off is given here.

Assays:
[1] = tested on: SARS-CoV-2; experiment: Antiviral activity against SARS-CoV-2 NRC-03-nhCoV infected in african green monkey Vero E6 cells assessed as inhibition of virus-induced cytopathic effect measured after 72 hrs by crystal violet staining based assay; assay type: functional, organism-based; conditions: Severe acute respiratory syndrome coronavirus 2, NRC-03-nhCoV, Vero C1008, 72 h
[2] = Cytotoxicity against African green monkey Vero E6 cells measured after 72 hrs by MTT assay; assay type: toxicity, cell-based, Vero C1008; conditions: chlorocebus sabaeus
[3] = Selectivity index, ratio of CC50 for african green monkey Vero E6 cells to IC50 for antiviral activity against SARS-CoV-2 NRC-03-nhCoV infected in african green monkey Vero E6 cells; assay type: toxicity, Vero C1008; conditions: read-out: Ratio CC50/IC50
[4] = tested on: HOP-62; experiment: Growth inhibition of human HOP-62 cells incubated for 48 hrs by SRB assay relative to control; assay type: functional
[5] = tested on: CCRF-CEM; experiment: Cytotoxicity against human CCRF-CEM cells assessed as inhibition of cell growth incubated for 48 hrs by SRB assay; assay type: functional, cell-based
[6] = tested on: HL-60(TB); experiment: Cytotoxicity against human HL-60(TB) cells assessed as inhibition of cell growth incubated for 48 hrs by SRB assay; assay type: functional, cell-based
[7] = tested on: K562; experiment: Cytotoxicity against human K562 cells assessed as inhibition of cell growth incubated for 48 hrs by SRB assay; assay type: functional, cell-based
[8] = tested on: MOLT-4; experiment: Cytotoxicity against human MOLT-4 cells assessed as inhibition of cell growth incubated for 48 hrs by SRB assay; assay type: functional, cell-based
[9] = tested on: RPMI-8226; experiment: Cytotoxicity against human […] cells assessed as inhibition of cell growth incubated for 48 hrs by SRB assay; assay type: functional, cell-based
[10] = tested on: SR; experiment: Cytotoxicity against human SR cells assessed as inhibition of cell growth incubated for 48 hrs by SRB assay; assay type: functional, cell-based
[11] = tested on: A549; experiment: Cytotoxicity against human A549 cells assessed as inhibition of cell growth incubated for 48 hrs by SRB assay; assay type: functional, cell-based
[12] = tested on: EKVX; experiment: Cytotoxicity against human EKVX cells assessed as inhibition of cell growth incubated for 48 hrs by SRB assay; assay type: functional, cell-based
[13] = tested on: HOP-92; experiment: Cytotoxicity against human HOP-92 cells assessed as inhibition of cell growth incubated for 48 hrs by SRB assay; assay type: functional, cell-based
[14] = tested on: NCI-H226; experiment: Cytotoxicity against human NCI-H226 cells assessed as inhibition of cell growth incubated for 48 hrs by SRB assay; assay type: functional, cell-based
[15] = tested on: NCI-H23; experiment: Cytotoxicity against human NCI-H23 cells assessed as inhibition of cell growth incubated for 48 hrs by SRB assay; assay type: functional, cell-based
[16] = tested on: NCI-H322M; experiment: Cytotoxicity against human NCI-H322M cells assessed as inhibition of cell growth incubated for 48 hrs by SRB assay; assay type: functional, cell-based
[17] = tested on: NCI-H460; experiment: Cytotoxicity against human NCI-H460 cells assessed as inhibition of cell growth incubated for 48 hrs by SRB assay; assay type: functional, cell-based
[18] = tested on: NCI-H522; experiment: Cytotoxicity against human NCI-H522 cells assessed as inhibition of cell growth incubated for 48 hrs by SRB assay; assay type: functional, cell-based
[19] = tested on: COLO 205; experiment: Cytotoxicity against human COLO 205 cells assessed as inhibition of cell growth incubated for 48 hrs by SRB assay; assay type: functional, cell-based
[20] = tested on: HCC 2998; experiment: Cytotoxicity against human HCC 2998 cells assessed as inhibition of cell growth incubated for 48 hrs by SRB assay; assay type: functional, cell-based
[21] = tested on: HCT-116; experiment: Cytotoxicity against human HCT-116 cells assessed as inhibition of cell growth incubated for 48 hrs by SRB assay; assay type: functional, cell-based
[22] = tested on: HCT-15; experiment: Cytotoxicity against human HCT-15 cells assessed as inhibition of cell growth incubated for 48 hrs by SRB assay; assay type: functional, cell-based
[23] = tested on: HT-29; experiment: Cytotoxicity against human HT-29 cells assessed as inhibition of cell growth incubated for 48 hrs by SRB assay; assay type: functional, cell-based
[24] = tested on: KM12; experiment: Cytotoxicity against human KM12 cells assessed as inhibition of cell growth incubated for 48 hrs by SRB assay; assay type: functional, cell-based
[25] = tested on: SW-620; experiment: Cytotoxicity against human SW620 cells assessed as inhibition of cell growth incubated for 48 hrs by SRB assay; assay type: functional, cell-based
[26] = tested on: SF-268; experiment: Cytotoxicity against human SF-268 cells assessed as inhibition of cell growth incubated for 48 hrs by SRB assay; assay type: functional, cell-based
[27] = tested on: SF-295; experiment: Cytotoxicity against human SF-295 cells assessed as inhibition of cell growth incubated for 48 hrs by SRB assay; assay type: functional, cell-based
[28] = tested on: SF-539; experiment: Cytotoxicity against human SF-539 cells assessed as inhibition of cell growth incubated for 48 hrs by SRB assay; assay type: functional, cell-based
[29] = tested on: SNB-19; experiment: Cytotoxicity against human SNB-19 cells assessed as inhibition of cell growth incubated for 48 hrs by SRB assay; assay type: functional, cell-based
[30] = tested on: SNB-75; experiment: Cytotoxicity against human SNB-75 cells assessed as inhibition of cell growth incubated for 48 hrs by SRB assay; assay type: functional, cell-based
[31] = tested on: U-251; experiment: Cytotoxicity against human U-251 cells assessed as inhibition of cell growth incubated for 48 hrs by SRB assay; assay type: functional, cell-based
[32] = tested on: LOX IMVI; experiment: Cytotoxicity against human LOX IMVI cells assessed as inhibition of cell growth incubated for 48 hrs by SRB assay; assay type: functional, cell-based
[33] = tested on: Malme-3M; experiment: Cytotoxicity against human Malme-3M cells assessed as inhibition of cell growth incubated for 48 hrs by SRB assay; assay type: functional, cell-based
[34] = tested on: M14; experiment: Cytotoxicity against human M14 cells assessed as inhibition of cell growth incubated for 48 hrs by SRB assay; assay type: functional, cell-based
[35] = tested on: MDA-MB-435; experiment: Cytotoxicity against human MDA-MB-435 cells assessed as inhibition of cell growth incubated for 48 hrs by SRB assay; assay type: functional, cell-based
[36] = tested on: SK-MEL-2; experiment: Cytotoxicity against human SK-MEL-2 cells assessed as inhibition of cell growth incubated for 48 hrs by SRB assay; assay type: functional, cell-based
[37] = tested on: SK-MEL-28; experiment: Cytotoxicity against human SK-MEL-28 cells assessed as inhibition of cell growth incubated for 48 hrs by SRB assay; assay type: functional, cell-based
[38] = tested on: SK-MEL-5; experiment: Cytotoxicity against human SK-MEL-5 cells assessed as inhibition of cell growth incubated for 48 hrs by SRB assay; assay type: functional, cell-based
[39] = tested on: UACC-257; experiment: Cytotoxicity against human UACC-257 cells assessed as inhibition of cell growth incubated for 48 hrs by SRB assay; assay type: functional, cell-based
[40] = tested on: IGROV-1; experiment: Cytotoxicity against human IGROV-1 cells assessed as inhibition of cell growth incubated for 48 hrs by SRB assay; assay type: functional, cell-based
[41] = tested on: OVCAR-3; experiment: Cytotoxicity against human OVCAR-3 cells assessed as inhibition of cell growth incubated for 48 hrs by SRB assay; assay type: functional, cell-based
[42] = tested on: OVCAR-4; experiment: Cytotoxicity against human OVCAR-4 cells assessed as inhibition of cell growth incubated for 48 hrs by SRB assay; assay type: functional, cell-based
[43] = tested on: OVCAR-5; experiment: Cytotoxicity against human OVCAR-5 cells assessed as inhibition of cell growth incubated for 48 hrs by SRB assay; assay type: functional, cell-based
[44] = tested on: OVCAR-8; experiment: Cytotoxicity against human OVCAR-8 cells assessed as inhibition of cell growth incubated for 48 hrs by SRB assay; assay type: functional, cell-based
[45] = tested on: NCI/ADR-RES; experiment: Cytotoxicity against human NCI/ADR-RES cells assessed as inhibition of cell growth incubated for 48 hrs by SRB assay; assay type: functional, cell-based
[46] = tested on: SK-OV-3; experiment: Cytotoxicity against human SK-OV-3 cells assessed as inhibition of cell growth incubated for 48 hrs by SRB assay; assay type: functional, cell-based
[47] = tested on: 786-0; experiment: Cytotoxicity against human 786-0 cells assessed as inhibition of cell growth incubated for 48 hrs by SRB assay; assay type: functional, cell-based
[48] = tested on: A498; experiment: Cytotoxicity against human A498 cells assessed as inhibition of cell growth incubated for 48 hrs by SRB assay; assay type: functional, cell-based
[49] = tested on: ACHN; experiment: Cytotoxicity against human ACHN cells assessed as inhibition of cell growth incubated for 48 hrs by SRB assay; assay type: functional, cell-based
[50] = tested on: CAKI-1; experiment: Cytotoxicity against human CAKI-1 cells assessed as inhibition of cell growth incubated for 48 hrs by SRB assay; assay type: functional, cell-based
[51] = tested on: RXF 393; experiment: Cytotoxicity against human RXF 393 cells assessed as inhibition of cell growth incubated for 48 hrs by SRB assay; assay type: functional, cell-based
[52] = tested on: SN12C; experiment: Cytotoxicity against human SN12C cells assessed as inhibition of cell growth incubated for 48 hrs by SRB assay; assay type: functional, cell-based
[53] = tested on: TK-10; experiment: Cytotoxicity against human TK-10 cells assessed as inhibition of cell growth incubated for 48 hrs by SRB assay; assay type: functional, cell-based
[54] = tested on: PC-3; experiment: Cytotoxicity against human PC-3 cells assessed as inhibition of cell growth incubated for 48 hrs by SRB assay; assay type: functional, cell-based
[55] = tested on: DU-145; experiment: Cytotoxicity against human DU-145 cells assessed as inhibition of cell growth incubated for 48 hrs by SRB assay; assay type: functional, cell-based
[56] = tested on: MCF7; experiment: Cytotoxicity against human MCF7 cells assessed as inhibition of cell growth incubated for 48 hrs by SRB assay; assay type: functional, cell-based
[57] = tested on: MDA-MB-231; experiment: Cytotoxicity against human MDA-MB-231 cells assessed as inhibition of cell growth incubated for 48 hrs by SRB assay; assay type: functional, cell-based
[58] = tested on: Hs578Bst; experiment: Cytotoxicity against human Hs578Bst cells assessed as inhibition of cell growth incubated for 48 hrs by SRB assay; assay type: functional, cell-based
[59] = tested on: BT-549; experiment: Cytotoxicity against human BT-549 cells assessed as inhibition of cell growth incubated for 48 hrs by SRB assay; assay type: functional, cell-based
[60] = tested on: T47D; experiment: Cytotoxicity against human T47D cells assessed as inhibition of cell growth incubated for 48 hrs by SRB assay; assay type: functional, cell-based
[61] = tested on: MDA-MB-468; experiment: Cytotoxicity against human MDA-MB-468 cells assessed as inhibition of cell growth incubated for 48 hrs by SRB assay; assay type: functional, cell-based
[62] = tested on: UO-31; experiment: Cytotoxicity against human UO-31 cells assessed as inhibition of cell growth incubated for 48 hrs by SRB assay; assay type: functional, cell-based

Structure (SMILES): Cn1c(=O)c2c(nc3n2CC=C(O)N3c2ccc(S(N)(=O)=O)cc2)n(C)c1=O
- IC50 [1]: 16 µM
- CC50 at 72 h [2]: 2040 µM
- selectivity ratio [3]: 127

Structure (SMILES): CCC(CC)COC(=O)[C@H](C)N[P@](=O)(OC[C@H]1O[C@@](C#N)(c2ccc3c(N)ncnn23)[C@H](O)[C@@H]1O)Oc1ccccc1
- IC50 [1]: 10.1 µM
- CC50 at 72 h [2]: 608 µM

Structure (SMILES): Cn1c(=O)c2c(ncn2CCC(=O)Nc2ccc(S(=O)(=O)Nc3ncccn3)cc2)n(C)c1=O
- IC50 [1]: 38.4 µM
- CC50 at 72 h [2]: 3940 µM
- selectivity ratio [3]: 103
- growth inhibition (GI) [4]: 16.12%
- Activity [5]: inactive
- Activity [6]: inactive
- Activity [7]: inactive
- Activity [8]: inactive
- Activity [9]: inactive
- Activity [10]: inactive
- Activity [11]: inactive
- Activity [12]: inactive
- Activity [13]: inactive
- Activity [14]: inactive
- Activity [15]: inactive
- Activity [16]: inactive
- Activity [17]: inactive
- Activity [18]: inactive
- Activity [19]: inactive
- Activity [20]: inactive
- Activity [21]: inactive
- Activity [22]: inactive
- Activity [23]: inactive
- Activity [24]: inactive
- Activity [25]: inactive
- Activity [26]: inactive
- Activity [27]: inactive
- Activity [28]: inactive
- Activity [29]: inactive
- Activity [30]: inactive
- Activity [31]: inactive
- Activity [32]: inactive
- Activity [33]: inactive
- Activity [34]: inactive
- Activity [35]: inactive
- Activity [36]: inactive
- Activity [37]: inactive
- Activity [38]: inactive
- Activity [39]: inactive
- Activity [40]: inactive
- Activity [41]: inactive
- Activity [42]: inactive
- Activity [43]: inactive
- Activity [44]: inactive
- Activity [45]: inactive
- Activity [46]: inactive
- Activity [47]: inactive
- Activity [48]: inactive
- Activity [49]: inactive
- Activity [50]: inactive
- Activity [51]: inactive
- Activity [52]: inactive
- Activity [53]: inactive
- Activity [54]: inactive
- Activity [55]: inactive
- Activity [56]: inactive
- Activity [57]: inactive
- Activity [58]: inactive
- Activity [59]: inactive
- Activity [60]: inactive
- Activity [61]: inactive
- Activity [62]: inactive
